Common to all, as to assay type: biochemical
The target in one test is T1, JAK1 (Homo sapiens, UniProt P23458).
T1 construct: purchased Invitrogen PV4775
Kind of test: Inhibition of JAK1 kinase, LANCE Ultra TR-FRET assay. Particulars: 2 nM JAK1, 2x ATP 76 μM, 15 min pre-incubation, 90 min reaction, 23° C. How it is done:
(§1) Exemplary compounds were assayed to determine potency in inhibiting activity of JAK1-3 and TYK2 kinases by determining IC50 values.
(§2) The sources of test materials and equipment are as follows: JAK1 (Invitrogen, Cat. No PV4775), JAK2 (Invitrogen, Cat. No PV4210), JAK3 (Invitrogen, Cat. No PV4080), TYK2 (Invitrogen, Cat. No PR8440C), ATP (Sigma, Cat. No. A7699-1G), DMSO (Sigma, Cat. No. D2650), DTT (Sigma, Cat. No. 43815), 384 wells_compound plate (Greiner, Cat. No. 781280), 384 wells_assay plate (Perkin Elmer, Cat. No. 6007299), LANCE Ultra ULight™-JAK-1 peptide (Perkin Elmer, Cat. No. TRF0121), LANCET™ Eu-W1024 Anti-phosphotyrosine (PT66) (Perkin Elmer, Cat. No. AD0069), LANCET™ Detection Buffer(Perkin Elmer, Cat. No. CR97-100).
(§3) The concentrations of test compounds varied from 100 μM to 1.7 nM with 3-fold dilution, 11 points, in duplicates while the concentrations of the reference compound, Tofacitinib, varied from 1 μM to 0.017 nM with 3-fold dilution, 11 points, in duplicates.
(§4) The assay buffer contained 50 mM HEPES (pH 7.5), 0.01% Brij-35, 10 mM MgCl2, 1 mM EDTA, 2 mM DTT. Incubations were carried out at 23° C.
(§5) Prior to the assay, enzyme, peptide substrate and serially diluted test compounds were pre-incubated together in assay buffer (5 μL) for 15 minutes (peptide substrate concentration: 50 nM; JAK enzyme concentrations: 2 nM JAK1; […]; […] and 4 nM TYK2). And the assay was initiated by the addition of 5 μL assay buffer containing 2× final ATP concentration (these are the 2×ATP concentrations: 76 μM JAK1; 24 μM JAK2; 8 μM JAK3 and 30 μM TYK2). Following the 90-minute incubation, antibody conjugated with Eu is dissolved in detection buffer to add into wells and then incubated for 60 minutes. The 10 μL detection buffer contains EDTA to stop the enzymatic reaction. The plate is analyzed by Perkin Elmer Envision on TR-FRET mode. The high ratio of 665/615 represents no inhibition of kinase reaction while the low ratio of 665/615 represents complete inhibition of kinase reaction.
(§6) Curves are fit by XLFIT5 as inhibition rate % vs. log [compound concentration] using 4 parameters logistic model 205.
(§7) In the table, “A” indicates an IC50 of less than 100 nM, “B” indicates an IC50 range from 100 nM to 500 nM; “C” indicates an IC50 range from 500 nM to 2 μM; and “D” indicates an IC50 greater than 2 μM. Also, “na” indicates data is not available.
(TR-FRET usually uses a lanthanide donor and a delayed reading to cut background.)

The next test concerns the target T2, JAK2 (Homo sapiens, UniProt O60674).
T2 construct: purchased Invitrogen PV4210
Kind of test: Inhibition of JAK2 kinase, LANCE Ultra TR-FRET assay. Particulars: 2x ATP 24 μM, 15 min pre-incubation, 90 min reaction, 23° C. How it is done:
as §1, §2, §3, §4, §5, §6, §7

For the next test, the target named is T3, JAK3 (Homo sapiens, UniProt P52333).
T3 construct: purchased Invitrogen PV4080
T3 sequence (P52333 1-1124): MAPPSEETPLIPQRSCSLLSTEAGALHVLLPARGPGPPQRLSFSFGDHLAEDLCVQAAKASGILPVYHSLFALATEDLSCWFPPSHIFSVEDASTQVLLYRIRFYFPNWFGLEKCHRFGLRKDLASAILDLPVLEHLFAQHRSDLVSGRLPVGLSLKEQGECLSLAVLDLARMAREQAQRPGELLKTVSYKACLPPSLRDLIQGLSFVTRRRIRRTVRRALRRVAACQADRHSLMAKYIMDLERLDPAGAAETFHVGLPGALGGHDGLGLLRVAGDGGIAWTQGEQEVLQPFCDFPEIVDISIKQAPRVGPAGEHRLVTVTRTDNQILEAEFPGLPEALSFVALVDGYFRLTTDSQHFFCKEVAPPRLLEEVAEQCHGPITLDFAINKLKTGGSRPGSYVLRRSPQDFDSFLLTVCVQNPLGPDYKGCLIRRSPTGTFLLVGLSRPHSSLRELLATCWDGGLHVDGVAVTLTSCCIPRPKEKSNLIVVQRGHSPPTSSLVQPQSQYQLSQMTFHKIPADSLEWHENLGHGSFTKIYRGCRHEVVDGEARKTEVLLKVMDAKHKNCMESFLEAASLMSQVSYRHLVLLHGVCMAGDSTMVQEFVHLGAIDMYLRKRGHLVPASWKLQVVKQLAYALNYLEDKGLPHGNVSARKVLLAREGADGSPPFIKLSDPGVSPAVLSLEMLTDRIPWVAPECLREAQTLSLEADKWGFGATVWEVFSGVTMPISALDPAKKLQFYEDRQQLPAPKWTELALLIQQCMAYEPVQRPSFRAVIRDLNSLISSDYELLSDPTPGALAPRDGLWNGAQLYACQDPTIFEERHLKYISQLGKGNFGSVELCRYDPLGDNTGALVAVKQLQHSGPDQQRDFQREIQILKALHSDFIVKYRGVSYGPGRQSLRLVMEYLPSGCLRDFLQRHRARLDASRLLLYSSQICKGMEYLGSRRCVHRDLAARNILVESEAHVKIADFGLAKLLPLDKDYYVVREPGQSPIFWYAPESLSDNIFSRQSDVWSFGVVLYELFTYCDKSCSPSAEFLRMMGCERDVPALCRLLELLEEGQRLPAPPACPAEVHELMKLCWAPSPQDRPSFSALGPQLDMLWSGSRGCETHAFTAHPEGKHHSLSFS
Briefly: Inhibition of JAK3 kinase, LANCE Ultra TR-FRET assay. Conditions: 2x ATP 8 μM, 15 min pre-incubation, 90 min reaction, 23° C. The method, then: as §1, §2, §3, §4, §5, §6, §7

The target in another test is T4, TYK2 (Homo sapiens, UniProt P29597).
T4 construct: purchased Invitrogen PR8440C
T4 sequence (P29597 whole entry): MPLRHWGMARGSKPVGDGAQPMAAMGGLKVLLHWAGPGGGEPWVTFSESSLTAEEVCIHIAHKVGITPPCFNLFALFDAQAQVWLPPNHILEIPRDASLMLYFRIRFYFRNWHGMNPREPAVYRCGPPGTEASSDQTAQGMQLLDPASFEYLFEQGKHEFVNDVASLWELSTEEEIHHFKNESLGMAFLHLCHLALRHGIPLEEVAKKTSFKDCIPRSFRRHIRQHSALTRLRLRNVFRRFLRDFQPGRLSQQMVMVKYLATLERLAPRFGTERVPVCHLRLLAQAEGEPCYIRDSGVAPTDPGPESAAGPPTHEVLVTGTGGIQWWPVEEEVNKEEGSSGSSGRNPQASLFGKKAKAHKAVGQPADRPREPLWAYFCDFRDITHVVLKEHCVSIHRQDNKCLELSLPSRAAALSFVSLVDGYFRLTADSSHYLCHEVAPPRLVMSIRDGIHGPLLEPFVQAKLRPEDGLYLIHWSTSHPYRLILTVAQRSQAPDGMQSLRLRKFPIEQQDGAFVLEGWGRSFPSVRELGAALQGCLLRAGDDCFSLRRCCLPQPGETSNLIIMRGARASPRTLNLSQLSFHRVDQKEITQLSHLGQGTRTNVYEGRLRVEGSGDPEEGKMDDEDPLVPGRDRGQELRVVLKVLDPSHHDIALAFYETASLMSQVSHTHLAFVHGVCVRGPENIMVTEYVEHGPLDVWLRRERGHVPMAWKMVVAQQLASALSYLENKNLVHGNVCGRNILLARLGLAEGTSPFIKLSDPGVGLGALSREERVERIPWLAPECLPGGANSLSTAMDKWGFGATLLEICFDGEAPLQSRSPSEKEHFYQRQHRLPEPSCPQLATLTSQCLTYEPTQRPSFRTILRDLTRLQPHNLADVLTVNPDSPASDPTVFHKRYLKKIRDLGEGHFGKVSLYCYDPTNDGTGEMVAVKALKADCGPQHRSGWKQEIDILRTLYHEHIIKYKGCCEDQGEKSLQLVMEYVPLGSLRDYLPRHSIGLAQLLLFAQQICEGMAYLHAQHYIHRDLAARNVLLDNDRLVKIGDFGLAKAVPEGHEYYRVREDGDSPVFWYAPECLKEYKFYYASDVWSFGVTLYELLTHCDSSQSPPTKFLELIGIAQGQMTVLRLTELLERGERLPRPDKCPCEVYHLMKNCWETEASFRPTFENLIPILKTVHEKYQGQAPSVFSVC
Briefly: Inhibition of TYK2 kinase, LANCE Ultra TR-FRET assay. Conditions: 4 nM TYK2, 2x ATP 30 μM, 15 min pre-incubation, 90 min reaction, 23° C., read-out: tyk IC50. The method, then:
as §1, §2, §3, §4, §5, §6, §7

T2 sequence (O60674 whole entry): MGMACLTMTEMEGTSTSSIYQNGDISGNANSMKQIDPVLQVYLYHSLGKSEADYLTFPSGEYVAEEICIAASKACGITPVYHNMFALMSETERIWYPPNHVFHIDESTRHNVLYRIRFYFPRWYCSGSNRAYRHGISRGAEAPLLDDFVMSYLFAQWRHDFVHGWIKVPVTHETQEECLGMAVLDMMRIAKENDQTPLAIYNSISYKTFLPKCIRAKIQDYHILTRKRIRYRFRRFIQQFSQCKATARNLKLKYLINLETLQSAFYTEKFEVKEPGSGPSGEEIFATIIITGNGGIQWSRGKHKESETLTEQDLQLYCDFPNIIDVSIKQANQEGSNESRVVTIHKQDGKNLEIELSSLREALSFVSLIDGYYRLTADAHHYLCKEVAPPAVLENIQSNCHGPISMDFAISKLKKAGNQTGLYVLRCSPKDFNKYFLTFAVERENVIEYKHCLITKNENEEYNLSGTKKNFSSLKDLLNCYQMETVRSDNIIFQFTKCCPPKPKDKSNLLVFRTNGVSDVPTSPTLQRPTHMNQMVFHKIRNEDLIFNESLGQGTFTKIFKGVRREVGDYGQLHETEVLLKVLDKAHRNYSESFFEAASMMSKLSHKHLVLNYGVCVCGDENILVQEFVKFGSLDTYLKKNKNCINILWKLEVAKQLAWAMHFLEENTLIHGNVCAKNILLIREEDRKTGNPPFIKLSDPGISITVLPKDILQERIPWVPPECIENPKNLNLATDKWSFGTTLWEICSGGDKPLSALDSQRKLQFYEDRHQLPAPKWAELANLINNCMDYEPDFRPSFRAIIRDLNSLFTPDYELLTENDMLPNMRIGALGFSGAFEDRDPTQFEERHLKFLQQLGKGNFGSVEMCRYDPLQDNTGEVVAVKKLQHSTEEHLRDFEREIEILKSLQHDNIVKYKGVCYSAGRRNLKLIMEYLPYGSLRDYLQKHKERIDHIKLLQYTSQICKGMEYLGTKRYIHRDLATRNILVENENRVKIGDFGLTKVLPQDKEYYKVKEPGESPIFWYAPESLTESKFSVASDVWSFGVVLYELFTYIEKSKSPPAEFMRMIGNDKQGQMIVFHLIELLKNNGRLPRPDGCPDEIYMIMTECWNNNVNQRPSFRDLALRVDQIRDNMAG
T1 sequence (P23458 whole entry): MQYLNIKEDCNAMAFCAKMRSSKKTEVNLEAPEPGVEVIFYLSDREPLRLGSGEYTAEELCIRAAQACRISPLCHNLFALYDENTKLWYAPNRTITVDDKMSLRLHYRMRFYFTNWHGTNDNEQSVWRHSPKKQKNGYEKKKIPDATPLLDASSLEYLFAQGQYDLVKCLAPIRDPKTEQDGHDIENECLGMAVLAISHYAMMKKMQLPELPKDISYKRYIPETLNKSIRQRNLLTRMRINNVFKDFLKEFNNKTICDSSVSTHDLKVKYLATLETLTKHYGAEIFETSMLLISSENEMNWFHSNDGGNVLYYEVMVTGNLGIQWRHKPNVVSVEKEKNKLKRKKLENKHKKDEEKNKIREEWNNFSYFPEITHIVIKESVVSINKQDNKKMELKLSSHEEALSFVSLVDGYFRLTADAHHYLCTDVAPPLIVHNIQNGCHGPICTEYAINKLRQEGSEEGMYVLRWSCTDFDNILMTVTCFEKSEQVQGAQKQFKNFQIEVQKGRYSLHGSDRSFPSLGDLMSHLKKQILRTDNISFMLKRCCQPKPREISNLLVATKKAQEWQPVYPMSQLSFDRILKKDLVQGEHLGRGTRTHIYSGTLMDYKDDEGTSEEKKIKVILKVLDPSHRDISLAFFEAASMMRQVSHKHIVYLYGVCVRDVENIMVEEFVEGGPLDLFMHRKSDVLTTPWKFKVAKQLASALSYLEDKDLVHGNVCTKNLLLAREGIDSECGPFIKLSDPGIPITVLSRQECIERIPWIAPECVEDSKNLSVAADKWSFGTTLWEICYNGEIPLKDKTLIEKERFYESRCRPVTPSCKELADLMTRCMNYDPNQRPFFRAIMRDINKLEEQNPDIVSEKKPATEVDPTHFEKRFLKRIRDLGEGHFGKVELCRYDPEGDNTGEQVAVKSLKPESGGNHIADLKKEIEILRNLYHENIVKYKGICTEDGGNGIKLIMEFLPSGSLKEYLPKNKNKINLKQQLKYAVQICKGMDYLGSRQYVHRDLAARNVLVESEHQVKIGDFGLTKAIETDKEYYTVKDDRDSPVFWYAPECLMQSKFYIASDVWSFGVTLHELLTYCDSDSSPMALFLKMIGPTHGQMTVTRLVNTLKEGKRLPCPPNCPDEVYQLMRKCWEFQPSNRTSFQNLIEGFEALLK

Consider `O=C(NCCC(F)(F)F)c1nn(C2CCC2)c2c1CN(c1ncnc3[nH]ccc13)CC2` [Compound 117], for which the IC50 (usually the concentration at which inhibition is half-maximal) is 100 to 500 nM at JAK1, 500 to 2000 nM against JAK2, less than 100 nM against JAK3 and greater than 2000 nM at TYK2.

For the molecule `COC(=O)[C@H]1C[C@H](NC(=O)c2nn(C)c3c2CN(c2ncnc4[nH]ccc24)CC3)C1` [Compound 121], the IC50 against JAK1, against JAK2, against JAK3 and on TYK2 was greater than 2000 nM in each case.

`O=C(NC[C@@H]1CC[C@H]1O)c1noc2c1CN(c1ncnc3[nH]ccc13)CC2` (relative stereo) [Compound 150-1]: the IC50 was 500 to 2000 nM at JAK1, 500 to 2000 nM against JAK2, 100 to 500 nM at JAK3 and greater than 2000 nM on TYK2.

Consider `O=C(NCCC(F)(F)F)c1nn(-c2ccccc2)c2c1CN(c1ncnc3[nH]ccc13)CC2` [Compound 114], for which the IC50 is 100 to 500 nM at JAK1, 500 to 2000 nM against JAK2, less than 100 nM against JAK3 and 500 to 2000 nM at TYK2.

In the case of `O=C(NCCCC1(O)CC1)c1noc2c1CN(c1ncnc3[nH]ccc13)CC2` [Compound 145], the IC50 was 100 to 500 nM at JAK1, 500 to 2000 nM against JAK2, 100 to 500 nM against JAK3 and greater than 2000 nM on TYK2.

As for `CS(=O)(=O)N1CC(CCNC(=O)c2noc3c2CN(c2ncnc4[nH]ccc24)CC3)C1` [Compound 169], the IC50 at JAK1 was 500 to 2000 nM; on JAK2, 500 to 2000 nM; on JAK3, 100 to 500 nM; on TYK2, greater than 2000 nM.

Turning to `O=C(NCCC(F)(F)F)c1nsc2c1CN(c1ncnc3[nH]ccc13)CC2` [Compound 141], the IC50 at JAK1 was less than 100 nM; against JAK2, less than 100 nM; against JAK3 it was less than 100 nM; at TYK2, 100 to 500 nM.

`O=C(NCCC(F)(F)F)c1noc2c1CN(c1ncnc3[nH]cnc13)CC2` [Compound 188]: the IC50 on JAK1 was 100 to 500 nM; against JAK2 it was 500 to 2000 nM; at JAK3, 100 to 500 nM; on TYK2, greater than 2000 nM.

For the molecule `O=C(NCCc1ccccc1)c1noc2c1CN(c1ncnc3[nH]ccc13)CC2` [Compound 163], the IC50 against JAK1 was 100 to 500 nM; on JAK2, 100 to 500 nM; against JAK3 it was less than 100 nM; at TYK2, greater than 2000 nM.

Take `CS(=O)(=O)N1CCN(CCNC(=O)c2noc3c2CN(c2ncnc4[nH]ccc24)CC3)CC1` [Compound 167]: the IC50 at JAK1 was 100 to 500 nM; on JAK2 it was 500 to 2000 nM; at JAK3, 100 to 500 nM; on TYK2, greater than 2000 nM.

With `CS(=O)(=O)N1CC(CNC(=O)c2noc3c2CN(c2ncnc4[nH]ccc24)CC3)C1` [Compound 168], the IC50 is 500 to 2000 nM at JAK1, 500 to 2000 nM at JAK2, 100 to 500 nM against JAK3 and greater than 2000 nM at TYK2.

For `Cn1cc(C(=O)NCCC(F)(F)F)c2c1CCN(c1ncnc3[nH]ccc13)C2` [Compound 130], the IC50 against JAK1 was less than 100 nM; on JAK2, 100 to 500 nM; on JAK3, less than 100 nM; at TYK2 it was 100 to 500 nM.

Turning to `O=C(NCCC1(F)COC1)c1noc2c1CN(c1ncnc3[nH]ccc13)CC2` [Compound 147], the IC50 against JAK1 is 100 to 500 nM; against JAK2, 100 to 500 nM; against JAK3, 100 to 500 nM; on TYK2 it was greater than 2000 nM.

As for `O=C(NCCC1CC1)c1n[nH]c2c1CN(c1ncnc3[nH]ccc13)CC2` [Compound 138], the IC50 at JAK1 is 100 to 500 nM; against JAK2, 100 to 500 nM; against JAK3, less than 100 nM; at TYK2 it was 500 to 2000 nM.

Take `O=C(NCCC1CCCC1)c1noc2c1CN(c1ncnc3[nH]ccc13)CC2` [Compound 158]: the IC50 is 100 to 500 nM at JAK1, 100 to 500 nM against JAK2, less than 100 nM on JAK3 and greater than 2000 nM on TYK2.

`O=C(NCCC(F)(F)F)c1noc2c1CN(c1ncnc3[nH]ncc13)CC2` [Compound 189]: the IC50 was 100 to 500 nM at JAK1, greater than 2000 nM against JAK2, 100 to 500 nM on JAK3 and greater than 2000 nM on TYK2.

Regarding `O=C(NCCN1CCC1)c1noc2c1CN(c1ncnc3[nH]ccc13)CC2` [Compound 152], the IC50 at JAK1, at JAK2, at JAK3 and at TYK2 was greater than 2000 nM in each case.

Consider `Cn1nc(C(=O)N[C@H]2C[C@H](C(=O)NS(C)(=O)=O)C2)c2c1CCN(c1ncnc3[nH]ccc13)C2` [Compound 125], for which the IC50 on JAK1 is 100 to 500 nM; against JAK2 it was 500 to 2000 nM; against JAK3 it was 100 to 500 nM; on TYK2, greater than 2000 nM.

With `CS(=O)(=O)C(CCNC(=O)c1noc2c1CN(c1ncnc3[nH]ccc13)CC2)C(F)(F)F` (centres unmarked) [Compound 170], the IC50 was 100 to 500 nM against JAK1, 100 to 500 nM against JAK2, 100 to 500 nM against JAK3 and greater than 2000 nM at TYK2.

In the case of `O=C(NCCC(F)(F)F)C1=NOC2CN(c3ncnc4[nH]ccc34)CC12` (centres unmarked) [Compound 187], the IC50 is 100 to 500 nM on JAK1, 500 to 2000 nM against JAK2, 100 to 500 nM against JAK3 and greater than 2000 nM on TYK2.

On to `CNC(=O)[C@H]1C[C@H](NC(=O)c2nn(C)c3c2CN(c2ncnc4[nH]ccc24)CC3)C1` [Compound 122], for which the IC50 on JAK1, against JAK2, against JAK3 and on TYK2 was greater than 2000 nM in each case.

For `CSC(CNC(=O)c1noc2c1CN(c1ncnc3[nH]ccc13)CC2)C(F)(F)F` (centres unmarked) [Compound 191], the IC50 on JAK1 is 100 to 500 nM; on JAK2 it was 100 to 500 nM; against JAK3, 100 to 500 nM; at TYK2, greater than 2000 nM.

As to `CNS(=O)(=O)CCNC(=O)c1noc2c1CN(c1ncnc3[nH]ccc13)CC2` [Compound 157], the IC50 against JAK1 is less than 100 nM; against JAK2, 100 to 500 nM; against JAK3, less than 100 nM; at TYK2, greater than 2000 nM.
